Measured values reported in the supplement of paper PMC4862054.

Assays:
Test in all cases: normalised response (% of control), CellTiter-Glo; higher = more viable cells (100 = DMSO, 0 = benzethonium chloride kill control)
Conditions in all cases: incubation time: 72 h
MDA-MB-453 [1] = system: MDA-MB-453
Method in brief: (§1)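 Compound was dispensed into 384-well plates at 5 concentrations in 10-fold steps spanning a 10,000-fold range specific to that compound. Breast cancer cell lines were added as 20 µl suspension and left for 72 h before CellTox Green fluorescence (485/520 nm) and then CellTiter-Glo luminescence, read after 10 min at room temperature. Each reported value is the normalised signal at one concentration, with 0.1 % DMSO set at 100 and a positive kill control at 0 on each plate.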

MCF-10A = system: MCF-10A
Method in brief: as §1

MDA-MB-231 [2] = system: MDA-MB-231
Method in brief: as §1

MFM-223 = system: MFM-223
Method in brief: as §1

HDQ-P1 = system: HDQ-P1
Method in brief: as §1

MDA-MB-436 [3] = system: MDA-MB-436
Method in brief: as §1

BT-549 [4] = system: BT-549
Method in brief: as §1

MDA-MB-468 [5] = system: MDA-MB-468
Method in brief: as §1

CAL-120 = system: CAL-120
Method in brief: as §1

BT-474 [6] = system: BT-474
Method in brief: as §1

HCC1937 = system: HCC1937
Method in brief: as §1

DU-4475 = system: DU-4475
Method in brief: as §1

SK-BR-3 = system: SK-BR-3
Method in brief: as §1

HCC1143 [7] = system: HCC1143
Method in brief: as §1

Hs578T = system: Hs578T
Method in brief: as §1

CAL-51 [8] = system: CAL-51
Method in brief: as §1

MDA-MB-453 [9] = system: MDA-MB-453; remark: listed apart in the source
Method in brief: as §1

CAL-85-1 = system: CAL-85-1
Method in brief: as §1

MDA-MB-231 [10] = system: MDA-MB-231; remark: listed apart in the source
Method in brief: as §1

MDA-MB-436 [11] = system: MDA-MB-436; remark: listed apart in the source
Method in brief: as §1

BT-549 [12] = system: BT-549; remark: listed apart in the source
Method in brief: as §1

MDA-MB-468 [13] = system: MDA-MB-468; remark: listed apart in the source
Method in brief: as §1

BT-474 [14] = system: BT-474; remark: listed apart in the source
Method in brief: as §1

HCC1599 = system: HCC1599
Method in brief: as §1

HCC1143 [15] = system: HCC1143; remark: listed apart in the source
Method in brief: as §1

CAL-51 [16] = system: CAL-51; remark: listed apart in the source
Method in brief: as §1

| SMILES | normalised response (MDA-MB-453 [1]) [%] | normalised response (MCF-10A) [%] | normalised response (MDA-MB-231 [2]) [%] | normalised response (MFM-223) [%] | normalised response (HDQ-P1) [%] | normalised response (MDA-MB-436 [3]) [%] | normalised response (BT-549 [4]) [%] | normalised response (MDA-MB-468 [5]) [%] | normalised response (CAL-120) [%] | normalised response (BT-474 [6]) [%] | normalised response (HCC1937) [%] | normalised response (DU-4475) [%] | normalised response (SK-BR-3) [%] | normalised response (HCC1143 [7]) [%] | normalised response (Hs578T) [%] | normalised response (CAL-51 [8]) [%] | normalised response (MDA-MB-453 [9]) [%] | normalised response (CAL-85-1) [%] | normalised response (MDA-MB-231 [10]) [%] | normalised response (MDA-MB-436 [11]) [%] | normalised response (BT-549 [12]) [%] | normalised response (MDA-MB-468 [13]) [%] | normalised response (BT-474 [14]) [%] | normalised response (HCC1599) [%] | normalised response (HCC1143 [15]) [%] | normalised response (CAL-51 [16]) [%] |
| --- | --- | --- | --- | --- | --- | --- | --- | --- | --- | --- | --- | --- | --- | --- | --- | --- | --- | --- | --- | --- | --- | --- | --- | --- | --- | --- |
| Cc1c(CN2CCN(C(=O)[C@H](C)O)CC2)sc2c(N3CCOCC3)nc(-c3cnc(N)nc3)nc12 [GDC-0980] (1000 nM) | 20.4 | 39.2 | 52 | 35.8 | 35.2 | 59.3 | 36.4 | 54.4 | 46.8 | 57 | 70.8 | 75.9 | 21.6 | 45.7 | 41.9 | 30.9 |  |  |  |  |  |  |  |  |  |  |
| O=C1c2c(O)ccc(O)c2C(=O)c2c(NCCNCCO)ccc(NCCNCCO)c21 [Mitoxantrone] (1000 nM) |  |  |  |  |  |  |  |  |  |  |  |  |  |  |  |  | 129 | 73.9 | 82.9 | 40.4 | 73.6 | 59.4 | 79.3 | 85.2 | 73.9 | 49 |
| COc1ccc(-c2cc3c(C)nc(N)nc3n([C@H]3CC[C@H](OCCO)CC3)c2=O)cn1 (10000 nM) |  |  |  |  |  |  |  |  |  |  |  |  |  |  |  |  | 3.84 | 4.45 | 9.59 | 37.1 | 8.65 | 4.65 | 23.9 | 44 | 7.29 | 0.68 |
| CNC(=O)c1cc(Oc2ccc(NC(=O)Nc3ccc(Cl)c(C(F)(F)F)c3)cc2)ccn1 [Sorafenib] (100 nM) | 90.5 | 122 | 104 | 104 | 103 | 109 | 106 | 117 | 111 | 101 | 104 | 105 | 104 | 105 | 90.6 | 83.9 |  |  |  |  |  |  |  |  |  |  |
| C[C@]12C=CC(=O)C=C1CC[C@@H]1[C@@H]2[C@@H](O)C[C@@]2(C)[C@H]1CC[C@]2(O)C(=O)CO [Prednisolone] (1000 nM) | 98.1 | 101 | 154 | 106 | 85.8 | 99.7 | 102 | 121 | 75.2 | 158 | 97.6 | 101 | 90.3 | 102 | 113 | 120 |  |  |  |  |  |  |  |  |  |  |
| Cc1ccc(Nc2nccc(N(C)c3ccc4c(C)n(C)nc4c3)n2)cc1S(N)(=O)=O [Pazopanib] (10000 nM) |  |  |  |  |  |  |  |  |  |  |  |  |  |  |  |  | 91.8 | 103 | 102 | 106 | 48.1 | 83.3 | 91.4 | 94.9 | 97.2 | 67.5 |
| CCC/C=C/C=C/C(=O)O[C@H]1/C(=C/C(=O)OC)C[C@H]2C[C@H]([C@@H](C)O)OC(=O)C[C@H](O)C[C@@H]3C[C@H](OC(C)=O)C(C)(C)[C@](O)(C[C@@H]4C/C(=C/C(=O)OC)C[C@H](/C=C/C(C)(C)[C@]1(O)O2)O4)O3 [Bryostatin 1] (10 nM) | 96.8 | 103 | 89.2 | 108 | 91.6 | 99.6 | 94.2 | 100 | 101 | 87.2 | 97.8 | 93.7 | 69.7 | 104 | 76.9 | 69.1 |  |  |  |  |  |  |  |  |  |  |
| CNC(=O)c1cc(Oc2ccc(NC(=O)Nc3ccc(Cl)c(C(F)(F)F)c3)cc2)ccn1 [Sorafenib] (1000 nM) |  |  |  |  |  |  |  |  |  |  |  |  |  |  |  |  | 92.4 | 108 | 108 | 120 | 102 | 112 | 102 | 94.1 | 106 | 146 |
| Cc1nc(Nc2ncc(C(=O)Nc3c(C)cccc3Cl)s2)cc(N2CCN(CCO)CC2)n1 [Dasatinib] (100 nM) | 100 | 32.5 | 43.8 | 88.5 | 35.3 | 83.4 | 61.7 | 75.4 | 57.5 | 54.8 | 69.7 | 100 | 104 | 67.9 | 61.5 | 51.6 |  |  |  |  |  |  |  |  |  |  |
| COc1cc(CCc2cc(NC(=O)c3ccc(N4CC(C)NC(C)C4)cc3)n[nH]2)cc(OC)c1 (configuration not stated) [AZD4547] (100 nM) | 90.4 | 86.2 | 106 | 53.1 | 104 | 99.2 | 88.4 | 92.2 | 80 | 102 | 93.4 | 96.9 | 89.3 | 93.1 | 88.1 | 91.4 |  |  |  |  |  |  |  |  |  |  |
| O=C(CCBr)N1CCN(C(=O)CCBr)CC1 [Pipobroman] (1000 nM) | 101 | 97 | 99.5 | 104 | 97.2 | 96.6 | 102 | 99.6 | 99.3 | 93.9 | 103 | 95.8 | 106 | 112 | 108 | 88.8 |  |  |  |  |  |  |  |  |  |  |
| C[C@]12O[C@H](C[C@]1(O)CO)n1c3ccccc3c3c4c(c5c6ccccc6n2c5c31)CNC4=O [Lestaurtinib] (100 nM) | 64.4 | 62.3 | 92.1 | 80.9 | 95.8 | 86 | 76.1 | 49.7 | 62.8 | 83.6 | 91 | 74.1 | 62.4 | 79.4 | 80.2 | 83.8 |  |  |  |  |  |  |  |  |  |  |
| Cc1ccc(Nc2nccc(N(C)c3ccc4c(C)n(C)nc4c3)n2)cc1S(N)(=O)=O [Pazopanib] (1000 nM) | 113 | 92.5 | 106 | 66.6 | 100 | 103 | 98.4 | 103 | 87.3 | 93.9 | 94.5 | 104 | 102 | 106 | 95.6 | 104 |  |  |  |  |  |  |  |  |  |  |
| Nc1ccccc1NC(=O)c1ccc(CNc2nccc(-c3cccnc3)n2)cc1 [Mocetinostat] (1000 nM) | 62.8 | 140 | 77.7 | 77 | 80.8 | 78.2 | 66 | 72 | 83.8 | 80.4 | 67.8 | 76.3 | 78 | 91 | 74 | 62.9 |  |  |  |  |  |  |  |  |  |  |
| COc1ccc(-c2cc3c(C)nc(N)nc3n([C@H]3CC[C@H](OCCO)CC3)c2=O)cn1 (1000 nM) | 12.9 | 19.5 | 24.7 | 26.2 | 21.9 | 37.5 | 17.8 | 20.5 | 27 | 34.7 | 38.7 | 48 | 14.2 | 21.4 | 19.3 | 10 |  |  |  |  |  |  |  |  |  |  |
| Nc1cccc2c1CN(C1CCC(=O)NC1=O)C2=O (configuration not stated) [Lenalidomide] (1000 nM) | 87.1 | 103 | 105 | 97.6 | 101 | 99.9 | 97.6 | 111 | 93.8 | 97.7 | 100 | 102 | 101 | 101 | 104 | 99 |  |  |  |  |  |  |  |  |  |  |
| CCN(CC)CCNC(=O)c1c(C)[nH]c(/C=C2\C(=O)Nc3ccc(F)cc32)c1C [Sunitinib] (100 nM) | 92 | 95.5 | 109 | 107 | 101 | 105 | 107 | 108 | 103 | 107 | 99.4 | 99.7 | 112 | 108 | 102 | 88.4 |  |  |  |  |  |  |  |  |  |  |
| COc1nc(N)nc2c1ncn2[C@@H]1O[C@H](CO)[C@@H](O)[C@@H]1O [Nelarabine] (1000 nM) | 87.3 | 82.8 | 93.9 | 88.3 | 96.7 | 92.1 | 94.1 | 92.1 | 98.7 | 83.7 | 96.2 | 91.3 | 80.7 | 89.3 | 98.7 | 88.7 |  |  |  |  |  |  |  |  |  |  |
| CO[C@@H](C(=O)N1Cc2[nH]nc(NC(=O)c3ccc(N4CCN(C)CC4)cc3)c2C1)c1ccccc1 [Danusertib] (1000 nM) | 156 | 46.2 | 74.7 | 43.2 | 82.5 | 80.9 | 51.4 | 33.6 | 75.7 | 75.6 | 89.3 | 83.7 | 91.2 | 75.1 | 81.6 | 59.9 |  |  |  |  |  |  |  |  |  |  |
| CC[C@@]1(O)C(=O)OCc2c1cc1n(c2=O)Cc2cc3c(CN(C)C)c(O)ccc3nc2-1 [Topotecan] (1000 nM) | 87.6 | 79.2 | 81.6 | 91.4 | 86.9 | 42.6 | 51.5 | 11.1 | 75.6 | 81.8 | 79.3 | 38.4 | 47.6 | 55.1 | 99.1 | 48 |  |  |  |  |  |  |  |  |  |  |
| O=C1c2c(O)ccc(O)c2C(=O)c2c(NCCNCCO)ccc(NCCNCCO)c21 [Mitoxantrone] (100 nM) | 107 | 96.2 | 103 | 99.7 | 96.4 | 69.8 | 90.1 | 92.4 | 34.6 | 94.3 | 97.3 | 86.2 | 99.2 | 96 | 104 | 93.8 |  |  |  |  |  |  |  |  |  |  |
